“Also recorded” adds a separate entry of the source. Read-outs that look alike come from different tables or passages of the source.
What was measured:
[1] = Chemical stability in isotonic saline and phosphate buffer (Example A); assay type: physicochemical; conditions: room temperature
Method: Methods: Aliquots of a 10 μg/mL solution of 30.1 in isotonic saline and in 100 mM potassium phosphate buffers at pH 3, 7, and 9 were sampled after 1, 2, 5, and 7 days of incubation at room temperature and analyzed by HPLC. A Beckman Ultrasphere C8 column (4.6×150 mm) was employed and eluted with a gradient from 0.1% v/v trifluoroacetic acid to 80% methanol at a flow rate of 1.0 mL/min. Detection was at 254 nm. Using these conditions, the four isomers of 30.1 were readily separated and quantified. 1.3 was incubated at 100 μM in phosphate buffer at pH 7.4 and analyzed by HPLC as described in Example I following 1 hour of incubation at room temperature.
Thus, prodrugs of the invention are stable under a broad pH range.

normal C57 mice = conditions: for araATP, nmoles/g liver: day 22, 3 hours after final dosing
Method: Death and other obvious signs of toxicity such as weight loss, tremors, ruffling fur, hunching, prostration, diarrhea, lethargy, and hyperactivity were monitored. On day 22, 3 hours following the final dosing, mice were sacrificed and livers were removed and homogenized in 3 volumes (to liver weight) of 10% perchloric acid.

[2] = Oral bioavailability from liver ara-ATP area under the curve (Example M); assay type: in vivo, rat; conditions: for oral bioavailability: hepatic ara-ATP AUC, fasted rats
Method: (§1) The oral bioavailability of prodrugs of a variety of phosphonic acid FBPase inhibitors was estimated by a urinary excretion method in rat.
Methods: Fasted rats were dosed orally and intravenously with 30.1 at 3 and 10 mg/kg. Liver samples were obtained, processed, and analyzed for ara-ATP content as described in Example P.
[“Adenine Arabinoside: An Antiviral Agent” (1975) D. Pavan-Langston, Editor, Raven Press Publishers, New York].

[3] = Tissue distribution: activation in tissue homogenates (Example T); assay type: in vitro ADME, rat; conditions: 100 μM; liver cytosol without microsomes
Method: 30.1 is tested for activation in homogenates from various tissues to assess the specificity of liver activation.
Methods: Rats are anaesthetized under halothane and tissues including liver, kidney, brain, heart, stomach, spleen, muscle, lung, and testis are excised and frozen in liquid nitrogen. Tissues are then homogenized in 1 to 3 volumes of 50 mM Tris/HCl, 154 mM KCl, 1 mM EGTA pH 7.4. The homogenate is centrifuged at 10,000 rpm and 4° C. for 30 minutes and the supernatant recovered. Liver cytosol is prepared by centrifuging the liver crude extract for 1 hour at 40,000 rpm and 4° C. Reaction mixtures consist of 50 mM KH2PO4 pH 7.4, 13 mM glucose-6-phosphate, 2 mM NADP^+, 10 units of glucose-6-phosphate dehydrogenase, 100 μM 30.1 and tissue homogenate at a protein concentration of 8.5 mg/ml. Reactions are incubated at 37° C. Aliquots are taken after 0 and 1 hour of incubation, and extracted with 60% methanol. The methanolic extracts are centrifuged at 14,000 rpm, and filtered prior to analysis by HPLC. The samples are loaded onto a YMC C8 column equilibrated with 0.1% TFA and eluted with a methanol gradient to 80%. Ihe activation of 30.1 to ara-AMP is monitored at […]
Results. […] Results of this nature indicate liver specific activation of 30.1.

[4] = Stability in plasma (Example C)
Method: Methods: Compounds were incubated in plasma at 37° C., and aliqouts removed at appropriate time points over the course of 5-8 hours. The aliquots were extracted with 1.5 volumes of methanol and clarified by centrifugation. Supernatants were then evaporated to dryness and the residues reconstituted with 100 μL of isoionic saline and then analyzed by reverse phase HPLC.

[5] = Liver ara-ATP and ara-hypoxanthine generation after intravenous administration (Example O); assay type: in vivo, rat; conditions: for liver ara-ATP area under the curve relative to 10 mg/kg equivalent dose of ara-AMP: over 8 hours
Method: The temporal profile of ara-hypoxanthine and ara-ATP generation following intravenous administration of 30.1 and free ara-AMP was compared in the rat. Method: 30.1 and ara-AMP (Sigma) were administered to normal, fasted rats intravenously (in saline) via tail vein catheters. At appropriate time points following drug a administration, animals were lightly anesthetized with halothane. The peritoneal cavity was then opened and a blood sample was obtained from the abdominal vena cava and the liver freeze-clamped and excised. The blood samples were heparinized and plasma was prepared. Plasma samples (100 μL) were mixed with 4 N perchloric acid (40 μL), vortexed, and then clarified by centrifugation. […] The eluent was monitored by UV absorbance at 254 nm. Livers were immediately homogenized in 3 volumes of 10% perchloric acid (w/w), and the extracts clarified by centrifugation at 2500×g (5 minutes). The resulting supernatants were removed and neutralized with 0.3 volumes of 3M KOH/3M KHCO3. […] Renal excretion of araH following i.v. administration of 30.1 or ara-AMP was determined as described in Example Q.

rat embryos in culture = conditions: cited from earlier work
isolated rat hepatocytes = assay: Generation of PMEApp in isolated rat hepatocytes (Example V); assay type: cell-based; conditions: Dose 250 μM; 4 h; triplicate
Method: Methods: Hepatocytes were prepared from fed rats and incubated as described in Example I. Test compounds were prepared in DMSO and-diluted to 250 μM in the cell suspensions. Reactions were performed in triplicate. After 4 hours of incubation, aliquots of the suspension were removed and processed as described in Example I. Quantitation of PMEApp was performed by anion exchange HPLC also as described in Example I.

[6] = Hepatic PMEA-diphosphate generation following oral administration (Example W); assay type: in vivo, rat; conditions: oral gavage 30 mg/kg PMEA equiv.; 4 h; fasted rats; n = 3
Method: Four hours post administration, liver samples were obtained and processed as described in Example […] was analyzed by anion exchange HPLC as described for […] in Example O.

[7] = Activation by rat liver microsomes (Example D); conditions: 100 μM; 0-2.5 mg/ml microsomal protein; 37° C.; with/without NADP+
Method: Methods: The microsomal fraction was prepared from fresh, saline-perfused rat liver. Liver tissue was homogenized in three volumes (w/v) of 0.2 M KH2PO4 buffer pH 7.5, containing 2 mM MgCl2 and 1 mM EGTA. The homogenate was centrifuged at 10,000 g for 1 hour and the supernatant recovered. The supernatant fraction was then recentrifuged at 100,000 g to pellet the microsomal fraction. The pellet was resuspended in homogenization buffer and recentrifuged. This process was repeated twice to ensure complete removal of cytosolic enzyme activities. After the last centrifugation, the microsomal pellet was resuspended in homogenization buffer at a final protein concentration of about 14 mg/ml.
For 7.1, reaction mixtures (0.5 ml) consisted of 0.2 M KH2PO4 pH 7.5, 13 mM glucose-6-phosphate, 2.2 mM NADP^+, 1 unit of glucose-6-phosphate dehydrogenase, 0-2.5 mg/ml microsomal protein and 100 μM 7.1. Reactions were carried out at 37° C. Aliquots were removed from the reaction mixtures at appropriate time points, and extracted with 60% methanol.
Reactions are monitored spectrophotometrically at 340 nm. A decrease in absorbance is indicative of cofactor depletion and thus of the enzymatic oxidation of prodrug to parent compound.

[8] = Oral bioavailability by urinary excretion method (Example M); assay type: in vivo; conditions: oral gavage 20 or 40 mg/kg parent equivalents; 24 h urine vs i.v. parent ~10 mg/kg; rat
Method: as §1
Prodrugs of FBPase inhibitors were dissolved in 10% ethanol/90% polyethylene glycol (mw 400) and administered by oral gavage at doses of 20 or 40 mg/kg parent compound equivalents to 6-hour fasted, Sprague Dawley rats (220-240 g). The rats were subsequently placed in metabolic cages and urine was collected for 24 hours. The quantity of parent compound excreted into urine was determined by HPLC analysis. An ODS column eluted with a gradient from potassium phosphate buffer, pH 5.5 to acetonitrile was employed for these measurements. Detection was at 310-325 nm. […] Parent compounds were typically dissolved in dimethyl sulfoxide, and administered via the tail vein in animals that were briefly anesthetized with halothane.
Results for the FBPase inhibitor prodrugs were as follows

With `Nc1ncnc2c1ncn2[C@@H]1O[C@H](COP2(=O)OCCC(c3ccncc3)O2)[C@@H](O)[C@@H]1O` (stereo partly drawn) [Compound 30.1, Adenine-9-beta-D-arabinofuranoside-5′-[1-(4-pyridyl)-1,3-propyl]monophosphate] the “decomposition in saline or buffer” value ([1]; 10 μg/mL, isotonic saline and 100 mM potassium phosphate buffers pH 3, 7, 9, 7 days, HPLC) was “No decomposition”, the “period for which stable” value ([1]; isotonic saline / 100 mM potassium phosphate buffer pH 3, 7, 9) was “at least seven” and the safety of administration (normal C57 mice; 22 day period, doses up to 200 mg/kg/d) was “safely administered”. For the same compound, the “araATP, nmoles/g liver” value (normal C57 mice; Dose 20 mg/kg/d) was 6.6 ± 1.6 nmoles/g liver, the “araATP, nmoles/g liver” value (normal C57 mice; Dose 200 mg/kg/d) was 23.1 ± 9 nmoles/g liver and the oral bioavailability ([2]; 3 mg/kg oral vs intravenous) was 13.7%. For the same compound, the oral bioavailability ([2]; 10 mg/kg oral vs intravenous) was 17.4%, the “production of the metabolite araH after oral administration” value ([2]; oral administration) was “without production of the metabolite araH” and the “activation to ara-AMP in liver cytosol” value [3] was “does not result in activation”. For the same compound, the “metabolism / degradation in fresh rat plasma” value ([4]; 37° C., 5-8 hours, HPLC) was “not degraded; also recorded: no evidence of metabolism”, the “deamination by adenosine deaminase found in rat plasma” value ([4]; rat plasma) was “not susceptible” and the “liver ara-ATP area under the curve relative to 10 mg/kg equivalent dose of ara-AMP” value ([5]; 30.1 3 mg/kg i.v., rat) was 2.1 times higher. For the same compound, the “liver ara-ATP area under the curve relative to 10 mg/kg equivalent dose of ara-AMP” value ([5]; 30.1 10 mg/kg i.v., rat) was 5.2 times higher, the “liver levels of araATP relative to araAMP (FIG. 1A)” value ([5]; i.v., 30.1 10 and 3 mg/kg vs araAMP 10 mg/kg) was “Significantly higher” and the “ara-hypoxanthine (araH) in plasma / blood” value ([5]; i.v., rat, 30.1 10 and 3 mg/kg, ara-AMP 10 mg/kg) was “not detected; also recorded: no ara-hypoxanthine; also recorded: failed to produce detectable amounts; also recorded: no araH (a toxic metabolite) was detected”. The “dose excreted in the form of ara-hypoxanthine in urine” value ([5]; i.v., rat, ara-AMP 10 mg/kg equivalent dose) was “Nor was ara-hypoxanthine detected in urine” and the “liver (araATP)/urine (araH) ratio in comparison with araAMP” value ([5]; rat) was “substantial shift”.
For `C=CC(=O)c1ccccc1` [Phenyl vinyl ketone], the teratogenic activity (rat embryos in culture) is listed as “lacks teratogenic activity”.
For `Nc1ncnc2c1ncn2CCOCP1(=O)OCCC(c2cccc(Cl)c2)O1` (stereo not shown) [Compound 31.1, 9-{2-[1-(3-Chlorophenyl)1,3-propylphosphonomethoxy]ethyl}adenine], the PMEApp (isolated rat hepatocytes) was 52.8 ± 1.5 nmol/g and the “Hepatic PMEApp (nmoles/g/tissue)” value [6] was 11.1 ± 1.8 nmoles/g/tissue.
With `CC(C)Cn1c(-c2ccc(P3(=O)OCC(CO)CO3)o2)nc2ccc(Cl)cc21` (stereo not shown) [Compound 7.1, 6-Chloro-1-isobutyl-2-{5-[2′-(hydroxymethyl)-propan-1′,3′-yl]phosphono-2-furanyl}benzimidazole] the “conversion to parent compound” value [7] was “converted to parent compound in the presence, but not in the absence of, NADP^+” and the “% OBAV Prodrug” value [8] was 10.9%.

Source: US7351399B2, “Prodrugs for phosphorus-containing compounds” (Metabasis Therapeutics, Inc., priority 1998, dated 2008)
